Measurements reported in patent US8969325B2, “TRPV1 antagonists” (AbbVie Inc., priority 2011, dated 2015).

Legend:
human TRPV1 [1] = biological target: T1, human TRPV1 (Homo sapiens (Human), UniProt Q8NER1); assay: Capsaicin Activation Assay (intracellular Ca2+, FLIPR); format: cell-based; settings: recombinant HEK293 cells expressing hTRPV1, 50 nM capsaicin
Summary of the method: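 Ca2+ fluorescence was recorded by FLIPR every 1 to 5 seconds in HEK293 cells, clonally selected for stable human TRPV1 expression and plated one day ahead. Test compounds came as serial dilutions of 10 mM DMSO stocks.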

human TRPV1 [2] = biological target: T1, human TRPV1; assay: Acid Activation Assay (pH 5.0, intracellular Ca2+, FLIPR); format: cell-based; settings: percentage of the maximal pH 5.0-induced response remaining; recombinant HEK293 hTRPV1 cells; maximum concentration tested 37.5 μM
Summary of the method: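 Readout: peak [Ca2+]i fluorescence over baseline on FLIPR, expressed as percentage remaining of the maximal pH 5.0-evoked signal. Stable hTRPV1-HEK293 cells with Calcium-4 dye received compound (12 half-log concentrations, maximum 37.5 μM) 3 min before acidic pH 5.0 buffer.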

T1 sequence (Q8NER1 whole entry): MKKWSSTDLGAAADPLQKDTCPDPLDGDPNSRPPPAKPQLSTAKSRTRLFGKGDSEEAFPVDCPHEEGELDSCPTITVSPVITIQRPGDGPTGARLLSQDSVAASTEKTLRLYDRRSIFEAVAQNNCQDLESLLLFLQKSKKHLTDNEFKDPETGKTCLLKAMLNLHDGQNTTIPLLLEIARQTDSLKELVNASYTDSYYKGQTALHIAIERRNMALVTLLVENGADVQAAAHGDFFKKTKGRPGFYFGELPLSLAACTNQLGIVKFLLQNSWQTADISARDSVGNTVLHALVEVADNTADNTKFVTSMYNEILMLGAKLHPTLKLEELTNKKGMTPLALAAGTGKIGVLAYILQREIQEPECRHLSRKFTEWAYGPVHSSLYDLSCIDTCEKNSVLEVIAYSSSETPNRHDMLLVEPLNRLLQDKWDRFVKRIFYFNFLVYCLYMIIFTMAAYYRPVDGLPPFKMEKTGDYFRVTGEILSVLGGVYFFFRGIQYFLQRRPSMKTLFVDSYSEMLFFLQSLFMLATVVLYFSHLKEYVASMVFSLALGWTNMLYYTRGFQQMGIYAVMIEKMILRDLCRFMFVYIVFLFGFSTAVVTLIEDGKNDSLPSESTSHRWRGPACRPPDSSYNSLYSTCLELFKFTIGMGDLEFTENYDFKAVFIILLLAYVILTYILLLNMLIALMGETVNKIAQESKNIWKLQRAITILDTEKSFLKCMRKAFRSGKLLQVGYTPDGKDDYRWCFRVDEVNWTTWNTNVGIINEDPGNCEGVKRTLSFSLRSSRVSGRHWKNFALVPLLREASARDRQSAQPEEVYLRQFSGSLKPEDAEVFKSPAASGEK

What does the source list for Cn1c(=O)ccc2c(NC(=O)N[C@@H]3CC4(CCC4)Oc4ccc(F)cc43)cccc21 [Example 73, 1-[(4R)-6-fluoro-3,4-dihydrospiro[chromene-2,1′-cyclobutan]-4-yl]-3-(1-methyl-2-oxo-1,2-dihydroquinolin-5-yl)urea]?
IC50 (human TRPV1 [1]): 19 nM; human TRPV1 H^+ (max % remain) (human TRPV1 [2]): 32%

CCC1(CC)C[C@@H](NC(=O)Nc2ccc3c(c2)NC(=O)N(C)C3)c2cccc(F)c2O1 [Example 177, 1-[(4R)-2,2-diethyl-8-fluoro-3,4-dihydro-2H-chromen-4-yl]-3-(3-methyl-2-oxo-1,2,3,4-tetrahydroquinazolin-7-yl)urea] was tested. Which IC50 (human TRPV1 [1]) did it give?
The IC50 was 91 nM.

And the “human TRPV1 H^+ (max % remain)” value (human TRPV1 [2])?
Its value is 59%.

With O=C(Nc1ccc2c(c1)NC(=O)C(N1CCOCC1)C2)N[C@@H]1CC(CF)(CF)Oc2cc(Cl)ccc21 (stereo partly drawn) [Example 300, 1-[(4R)-7-chloro-2,2-bis(fluoromethyl)-3,4-dihydro-2H-chromen-4-yl]-3-[3-(morpholin-4-yl)-2-oxo-1,2,3,4-tetrahydroquinolin-7-yl]urea] as the compound, how does the IC50 (human TRPV1 [1]) read?
Its IC50 is 62 nM.

What about the “human TRPV1 H^+ (max % remain)” value (human TRPV1 [2]) of the same compound?
Its value is 75%.

What does the source list for CC1(C)C[C@H](NC(=O)Nc2ccc3c(c2)NC(=O)N(CCO)C3)c2cc(F)ccc2O1 [Example 57, 1-[(4S)-6-fluoro-2,2-dimethyl-3,4-dihydro-2H-chromen-4-yl]-3-[3-(2-hydroxyethyl)-2-oxo-1,2,3,4-tetrahydroquinazolin-7-yl]urea]?
IC50 (human TRPV1 [1]): 380 nM; human TRPV1 H^+ (max % remain) (human TRPV1 [2]): 43%

What does the source list for CCCC1(CCC)C[C@@H](NC(=O)Nc2ccc3c(c2)NC(=O)N(CCO)C3)c2cc(F)ccc2O1 [Example 310, 1-[(4R)-6-fluoro-2,2-dipropyl-3,4-dihydro-2H-chromen-4-yl]-3-[3-(2-hydroxyethyl)-2-oxo-1,2,3,4-tetrahydroquinazolin-7-yl]urea]?
IC50 (human TRPV1 [1]): 190 nM; human TRPV1 H^+ (max % remain) (human TRPV1 [2]): 2%

For O=C1CCc2ccc(NC(=O)N[C@@H]3CC(CF)(CF)Oc4ccccc43)cc2N1 [Example 215, 1-[(4R)-2,2-bis(fluoromethyl)-3,4-dihydro-2H-chromen-4-yl]-3-(2-oxo-1,2,3,4-tetrahydroquinolin-7-yl)urea], which IC50 (human TRPV1 [1]) is on record?
The IC50 was 60 nM.

What about the “human TRPV1 H^+ (max % remain)” value (human TRPV1 [2]) of the same compound?
The value was 49%.

O=C(Nc1ccc2c(c1)NC(=O)N(CCO)C2)N[C@@H]1CCOc2ccccc21 [Example 308, 1-[(4R)-3,4-dihydro-2H-chromen-4-yl]-3-[3-(2-hydroxyethyl)-2-oxo-1,2,3,4-tetrahydroquinazolin-7-yl]urea] was tested. Which IC50 (human TRPV1 [1]) did it give?
The IC50 was 68 nM.

What about the “human TRPV1 H^+ (max % remain)” value (human TRPV1 [2]) of the same compound?
Its value is 3%.

With C[C@@]1(CF)C[C@@H](NC(=O)Nc2ccc3c(c2)NC(=O)CO3)c2ccc(Cl)cc2O1 [Example 129, 1-[(2S,4R)-7-chloro-2-(fluoromethyl)-2-methyl-3,4-dihydro-2H-chromen-4-yl]-3-(3-oxo-3,4-dihydro-2H-1,4-benzoxazin-6-yl)urea] as the compound, how does the IC50 (human TRPV1 [1]) read?
The IC50 was 120 nM.

And the “human TRPV1 H^+ (max % remain)” value (human TRPV1 [2])?
The value was 97%.
